According to patent US20150209315A1 (Cumberland Pharmaceuticals, priority 2009, published 2015):

Key:
[1] = test system: post-operative adult patients; experiment: Example 1: patient self-assessment of pain, VAS at rest; type: in vivo, human
Description: Pain was measured by the patient's self-assessment using a Visual Analog Scale (VAS) from 0-10 with 0 being no pain and 10 being intense pain. This was measured both at rest and with movement. […] […] To account for the missing pain assessments, two missing value approaches as described in the statistical analysis plan were used to impute values. To determine the difference in overall pain at differing time-points, the area under the VAS pain curve during the first 24 hours, between 6 and 24 hours and between 12 and 24 hours were analyzed.

[2] = test system: patients with fever and severe sepsis; conditions: cited from earlier work

CC(C)Cc1ccc(C(C)C(=O)O)cc1 (centres unmarked) [Ibuprofen, 2-(4-isobutylphenyl) propionic acid]
VAS Score measured at Rest (median) ([1]; 400 mg, ITT, 48-Hour): 1.6
VAS Score measured at Rest, % Reduction vs Placebo ([1]; 400 mg, ITT, 48-Hour): −6.7%
VAS Score measured at Rest (median) ([1]; 800 mg, EEP, 1-Hour): 7.0
VAS Score measured at Rest, % Reduction vs Placebo ([1]; 800 mg, EEP, 1-Hour): 0.0%
VAS Score measured at Rest (median) ([1]; 800 mg, EEP, 2-Hour): 6.0
VAS Score measured at Rest, % Reduction vs Placebo ([1]; 800 mg, EEP, 2-Hour): −1.7%
VAS Score measured at Rest (median) ([1]; 800 mg, EEP, 3-Hour): 5.0
VAS Score measured at Rest, % Reduction vs Placebo ([1]; 800 mg, EEP, 3-Hour): 0.0%
VAS Score measured at Rest (median) ([1]; 800 mg, EEP, 6-Hour): 5.0
VAS Score measured at Rest, % Reduction vs Placebo ([1]; 800 mg, EEP, 6-Hour): −25.0%
VAS Score measured at Rest (median) ([1]; 800 mg, EEP, 9-Hour): 3.0
VAS Score measured at Rest (median) ([1]; 800 mg, EEP, 12-Hour): 3.0
VAS Score measured at Rest, % Reduction vs Placebo ([1]; 800 mg, EEP, 12-Hour): 0.0%
VAS Score measured at Rest (median) ([1]; 800 mg, EEP, 15-Hour): 2.8
VAS Score measured at Rest, % Reduction vs Placebo ([1]; 800 mg, EEP, 15-Hour): 6.7%
VAS Score measured at Rest (median) ([1]; 800 mg, EEP, 18-Hour): 2.0
VAS Score measured at Rest, % Reduction vs Placebo ([1]; 800 mg, EEP, 18-Hour): 33.3%
VAS Score measured at Rest (median) ([1]; 800 mg, EEP, 21-Hour): 2.0
VAS Score measured at Rest, % Reduction vs Placebo ([1]; 800 mg, EEP, 21-Hour): 33.3%
VAS Score measured at Rest (median) ([1]; 800 mg, EEP, 24-Hour): 2.0
VAS Score measured at Rest, % Reduction vs Placebo ([1]; 800 mg, EEP, 24-Hour): 33.3%
VAS Score measured at Rest (median) ([1]; 800 mg, EEP, 27-Hour): 2.3
VAS Score measured at Rest (median) ([1]; 800 mg, EEP, 30-Hour): 2.4
VAS Score measured at Rest, % Reduction vs Placebo ([1]; 800 mg, EEP, 30-Hour): 14.3%
VAS Score measured at Rest (median) ([1]; 800 mg, EEP, 33-Hour): 2.3
VAS Score measured at Rest, % Reduction vs Placebo ([1]; 800 mg, EEP, 33-Hour): 28.1%
VAS Score measured at Rest (median) ([1]; 800 mg, EEP, 36-Hour): 2.2
VAS Score measured at Rest, % Reduction vs Placebo ([1]; 800 mg, EEP, 36-Hour): 15.4%
VAS Score measured at Rest (median) ([1]; 800 mg, EEP, 39-Hour): 2.7
VAS Score measured at Rest, % Reduction vs Placebo ([1]; 800 mg, EEP, 39-Hour): −50.0%
VAS Score measured at Rest (median) ([1]; 800 mg, EEP, 42-Hour): 1.8
VAS Score measured at Rest, % Reduction vs Placebo ([1]; 800 mg, EEP, 42-Hour): 10.0%
VAS Score measured at Rest (median) ([1]; 800 mg, EEP, 45-Hour): 2.0
VAS Score measured at Rest, % Reduction vs Placebo ([1]; 800 mg, EEP, 45-Hour): 4.8%
VAS Score measured at Rest (median) ([1]; 800 mg, EEP, 48-Hour): 1.1
VAS Score measured at Rest (median) ([1]; 800 mg, ITT, 1-Hour): 7.0
VAS Score measured at Rest, % Reduction vs Placebo ([1]; 800 mg, ITT, 1-Hour): 0.0%
VAS Score measured at Rest (median) ([1]; 800 mg, ITT, 2-Hour): 5.7
VAS Score measured at Rest, % Reduction vs Placebo ([1]; 800 mg, ITT, 2-Hour): 6.6%
VAS Score measured at Rest (median) ([1]; 800 mg, ITT, 3-Hour): 5.0
VAS Score measured at Rest, % Reduction vs Placebo ([1]; 800 mg, ITT, 3-Hour): 0.0%
VAS Score measured at Rest (median) ([1]; 800 mg, ITT, 6-Hour): 4.0
VAS Score measured at Rest, % Reduction vs Placebo ([1]; 800 mg, ITT, 6-Hour): 0.0%
VAS Score measured at Rest (median) ([1]; 800 mg, ITT, 9-Hour): 3.0
VAS Score measured at Rest (median) ([1]; 800 mg, ITT, 12-Hour): 2.9
VAS Score measured at Rest, % Reduction vs Placebo ([1]; 800 mg, ITT, 12-Hour): 3.3%
VAS Score measured at Rest (median) ([1]; 800 mg, ITT, 15-Hour): 2.6
VAS Score measured at Rest, % Reduction vs Placebo ([1]; 800 mg, ITT, 15-Hour): 21.2%
VAS Score measured at Rest (median) ([1]; 800 mg, ITT, 18-Hour): 2.0
VAS Score measured at Rest, % Reduction vs Placebo ([1]; 800 mg, ITT, 18-Hour): 33.3%
VAS Score measured at Rest (median) ([1]; 800 mg, ITT, 21-Hour): 2.0
VAS Score measured at Rest, % Reduction vs Placebo ([1]; 800 mg, ITT, 21-Hour): 42.9%
VAS Score measured at Rest (median) ([1]; 800 mg, ITT, 24-Hour): 2.0
VAS Score measured at Rest, % Reduction vs Placebo ([1]; 800 mg, ITT, 24-Hour): 33.3%
VAS Score measured at Rest (median) ([1]; 800 mg, ITT, 27-Hour): 2.2
VAS Score measured at Rest (median) ([1]; 800 mg, ITT, 30-Hour): 2.3
VAS Score measured at Rest, % Reduction vs Placebo ([1]; 800 mg, ITT, 30-Hour): 14.8%
VAS Score measured at Rest (median) ([1]; 800 mg, ITT, 33-Hour): 2.3
VAS Score measured at Rest, % Reduction vs Placebo ([1]; 800 mg, ITT, 33-Hour): 28.1%
VAS Score measured at Rest (median) ([1]; 800 mg, ITT, 36-Hour): 2.2
VAS Score measured at Rest, % Reduction vs Placebo ([1]; 800 mg, ITT, 36-Hour): 15.4%
VAS Score measured at Rest (median) ([1]; 800 mg, ITT, 39-Hour): 2.7
VAS Score measured at Rest, % Reduction vs Placebo ([1]; 800 mg, ITT, 39-Hour): −50.0%
VAS Score measured at Rest (median) ([1]; 800 mg, ITT, 42-Hour): 1.9
VAS Score measured at Rest, % Reduction vs Placebo ([1]; 800 mg, ITT, 42-Hour): 5.0%
VAS Score measured at Rest (median) ([1]; 800 mg, ITT, 45-Hour): 1.9
VAS Score measured at Rest, % Reduction vs Placebo ([1]; 800 mg, ITT, 45-Hour): 5.0%
VAS Score measured at Rest (median) ([1]; 800 mg, ITT, 48-Hour): 1.3
VAS Score measured at Rest, % Reduction vs Placebo ([1]; 800 mg, ITT, 48-Hour): 13.3%
safety (renal function, gastrointestinal bleeding, transfusion requirements, other SAEs) ([2]; in vivo, iv): safe
effect on fever, pulse rate and lactic acidosis ([2]; patients with sepsis, intravenous): reduced fever and pulse rate and lessened lactic acidosis
